Assay in all cases: NCI anticancer screen, dose series, 48 h
Assay [1] relates to A498 renal.
Assay [2] relates to HL-60(TB) leukemia.
The subject of assay [3] is HT29 colon.
The test system of assay [4] is LOX IMVI melanoma.
Assay [5] has as its system M14 melanoma.
For assay [6], the system named is MCF7 breast.
Assay [7] deals with MDA-MB-231 breast.
The subject of assay [8] is NCI-H226 lung.
For assay [9], the system named is NCI-H23 lung.
In assay [10] the test system is PC-3 prostate.
The subject of assay [11] is SF-539 CNS.
Assay [12] deals with SK-MEL-2 melanoma.
The subject of assay [13] is SK-MEL-28 melanoma.
For assay [14], the system named is SN12C renal.
Assay [15] concerns SNB-75 CNS.
For assay [16], the system named is T-47D breast.
The test system of assay [17] is U251 CNS.
Assay [18] has as its system UACC-62 melanoma.
Assay [19] deals with SR leukemia.
The subject of assay [20] is HCC-2998 colon.

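Cells were grown in 96-well plates and exposed to each compound for 48 hours at five concentrations; endpoints were interpolated linearly between bracketing concentrations, or set to the highest concentration if not reached. At the TGI there is no net growth.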

As to `COC(=O)Nc1nc2ccc(NC(=O)c3cccs3)cc2[nH]1`, the TGI is 88.7 µM in assay [1]; more than 100 µM in [2]; more than 100 µM in assay [3]; more than 100 µM in [4]; more than 100 µM in [5]; more than 100 µM in [6]. For the same compound, the TGI in [7] is more than 100 µM; in assay [8], more than 100 µM; in assay [9], more than 100 µM; in assay [10] it was more than 100 µM; in assay [11], 60.2 µM; in assay [12], more than 100 µM. Also, the TGI was more than 100 µM in assay [13]; more than 100 µM in [14]; 65 µM in assay [15]; 88.1 µM in [16]; more than 100 µM in [17]; more than 100 µM in [18].
Regarding `CC(=O)O[C@H]1CCC2[C@@H]3CCC4Cc5nc6c(nc5C[C@]4(C)C3CC[C@@]21C)CC1CC[C@@H]2C(CC[C@@]3(C)C2CC[C@@H]3C(C)CCCC(C)C)[C@@]1(C)C6` (stereo partly specified), the TGI in assay [2], in assay [3], in [4], in [5], in assay [6] and in [7] was more than 100 µM throughout. In addition, the TGI in [8], in assay [9], in assay [10], in assay [11], in assay [12] and in [13] was more than 100 µM throughout. The TGI in assay [14], in assay [15], in [16], in assay [17] and in [18] was more than 100 µM throughout.
As to `O=C1C(=Cc2cccc(O)c2)N=C(c2ccccc2)N1n1c(-c2ccccc2)nc2ccccc2c1=O`, the TGI in assay [1] was 72.4 µM; in assay [2], 54 µM; in assay [3], 85 µM; in assay [4] it was 52.5 µM; in assay [5], more than 100 µM; in assay [7] it was more than 100 µM. The TGI in assay [8] is 18.9 µM; in assay [9], 88.5 µM; in assay [10], 58.7 µM; in assay [11], 51.3 µM; in [13], more than 100 µM; in [14], more than 100 µM. Moreover, the TGI in assay [19] is 60.5 µM; in [16] it was 91.7 µM; in assay [17], more than 100 µM; in assay [18] it was 50.9 µM.
Turning to `O=c1c2cc([N+](=O)[O-])ccc2n2n1CCCC2`, the TGI in [1], in assay [20], in [2], in assay [3], in [4] and in assay [5] was more than 100 µM each time. Also, the TGI in [7], in assay [8], in assay [9], in assay [10], in [11] and in [13] was more than 100 µM throughout. The TGI in [14], in assay [15], in assay [19], in assay [16], in [17] and in [18] was more than 100 µM in each case.
As to `COc1cc(N(Cc2ccc3nc(OC)c(OC)nc3c2)Cc2ccc3nc(OC)c(OC)nc3c2)cc(OC)c1OC`, the TGI in [2], in assay [3], in assay [4], in [5], in assay [6] and in [8] was more than 50 µM in each case. For the same compound, the TGI in [9], in assay [10], in [11], in assay [12], in assay [13] and in assay [14] was more than 50 µM each time. In addition, the TGI is 15.6 µM in assay [15]; more than 50 µM in assay [19]; more than 50 µM in [16]; more than 50 µM in assay [17]; more than 50 µM in assay [18].
Consider `CCOC(=O)c1ccc(Nc2nc3ccccc3nc2C(=O)OCC)cc1`, for which the TGI in assay [20], in [2], in assay [3], in assay [5], in assay [6] and in assay [7] was more than 100 µM throughout. Further, the TGI in assay [9], in [11], in assay [12], in assay [13], in assay [14] and in assay [15] was more than 100 µM each time. Moreover, the TGI in assay [19], in [16], in assay [17] and in assay [18] was more than 100 µM in each case.
Consider `Clc1cc(Br)c2c3c(c(Br)cc(Cl)c13)C(Br)=C2Br`, for which the TGI in assay [1] was more than 100 µM; in assay [20], 38.6 µM; in [2] it was 56 µM; in [3] it was 61.5 µM; in [4] it was 32.2 µM; in [5] it was more than 100 µM. Further, the TGI in [6] was more than 100 µM; in assay [7], 82 µM; in assay [8], more than 100 µM; in assay [10], more than 100 µM; in assay [11], 35.7 µM; in assay [12] it was more than 100 µM. Besides, the TGI in [13] is more than 100 µM; in [14], 44.7 µM; in assay [15], 71.7 µM; in assay [19], 58.1 µM; in assay [17], more than 100 µM; in assay [18], 79.7 µM.
On to `CN(C)Cc1cc(C=O)cc(CN(C)C)c1O`, for which the TGI in assay [1], in assay [20], in assay [2], in assay [3], in assay [4] and in assay [6] was more than 100 µM throughout. The TGI in [7] was more than 100 µM; in [8], more than 100 µM; in [9] it was 67.4 µM; in assay [10] it was more than 100 µM; in [11], more than 100 µM; in assay [13], more than 100 µM. Moreover, the TGI in [14], in assay [15], in assay [19] and in assay [17] was more than 100 µM each time.
